Laboratory results as given in US9746466B2, “Integrated compound discovery systems and methods” (Wake Forest University, priority 2011, dated 2017).

Biological target: thrombin (Homo sapiens, UniProt P00734)
Test: on-chip binding of TAMRA-labeled thrombin to bead-displayed oligonucleotides on Ion Torrent sequencing chips, fluorescence imaging
Conditions: after washing, fluorescence imaging of wells, 20mer GT randomer library doped with thrombin aptamer
Text: Embodiments of the present invention reduce uncertainty due to amplification-based biases, blind spots and inference-based methods of deconvoluting candidate sequences through direct, on-chip analysis of candidate sequences and their target-binding properties. […] We obtained DNA libraries containing a 20mer GT randomer region flanked by Ion Torrent adaptor sequences (ITD, Coralville, Iowa). Libraries were doped with increasing amounts of the thrombin aptamer (with adaptors). […] The number of full-length reads correlates with the amount of thrombin aptamer doped into GT randomer libraries.

## GGTTGGTGTGGTTGG (DNA, backbone not given here) [thrombin aptamer]
  intensity of the TAMRA signal: highest
  residence time of the TAMRA signal: highest
